# Patent US20250195521A1 (Revolution Medicines, Inc., priority 2020, published 2025)
# Where two headings read alike, the source gives them in different places.
# Test system: K-Ras G12C (NCI-H358 cells)
# Experiment: Potency assay: pERK in NCI-H358 cells
# Format: cell-based, human
# Conditions: Homo sapiens, read-out: pERK EC50 (H358 KRAS G12C)
# Method: The purpose of this assay is to measure the ability of test compounds to inhibit K-Ras in cells. […] This procedure measures a decrease in cellular pERK in response to test compounds. The procedure described below in NCI-H358 cells is applicable to K-Ras G12C.
# Note: This protocol may be executed substituting other cell lines to characterize inhibitors of other RAS variants, including, for example, AsPC-1 (K-Ras G12D), Capan-1 (K-Ras G12V), or NCI-H1355 (K-Ras G13C).
# NCI-H358 cells were grown and maintained using media and procedures recommended by the ATCC. On the day prior to compound addition, cells were plated in 384-well cell culture plates (40 μl/well) and grown overnight in a 37° C., 5% CO2 incubator. Test compounds were prepared in 10, 3-fold dilutions in DMSO, with a high concentration of 10 mM. On the day of assay, 40 nL of test compound was added to each well of cell culture plate using an Echo550 liquid handler (LabCyte®). Concentrations of test compound were tested in duplicate. After compound addition, cells were incubated 4 hours at 37° C., 5% CO2. Following incubation, culture medium was removed and cells were washed once with phosphate buffered saline.
# In some experiments, cellular pERK level was determined using the AlphaLISA SureFire Ultra p-ERK1/2 Assay Kit (PerkinElmer). Cells were lysed in 25 μL lysis buffer, with shaking at 600 RPM at room temperature. […] After a 2-hour incubation in the dark, 5 μL donor mix was added, plate was sealed, and incubated 2 hours at room temperature. Signal was read on an Envision plate reader (PerkinElmer) using standard AlphaLISA settings. Analysis of raw data was carried out in Excel (Microsoft) and Prism (GraphPad). Signal was plotted vs. the decadal logarithm of compound concentration, and IC50 was determined by fitting a 4-parameter sigmoidal concentration response model.
# In other experiments, cellular pERK was determined by In-Cell Western. […] Fixed cells were washed 4 times for 5 minutes with TBS containing 0.1% Triton X-100 (TBST) and then blocked with 100 μL Odyssey blocking buffer (LI-COR) for 60 minutes at room temperature. Primary antibody (PERK, CST-4370, Cell Signaling Technology) was diluted 1:200 in blocking buffer, and 50 μL was added to each well and incubated overnight at 4° C. Cells were washed 4 times for 5 minutes with TBST. Secondary antibody (IR-800CW rabbit, LI-COR, diluted 1:800) and DNA stain DRAQ5 (LI-COR, diluted 1:2000) were added and incubated 1-2 hours at room temperature. Cells were washed 4 times for 5 minutes with TBST. Plates were scanned on a Li—COR Odyssey CLx Imager. Analysis of raw data was carried out in Excel (Microsoft) and Prism (GraphPad). Signal was plotted vs. the decadal logarithm of compound concentration, and IC50 was determined by fitting a 4-parameter sigmoidal concentration response model.
SMILES,"EC50 (NCI-H358 cells, 4 hours) [µM]","EC50 (NCI-H358, 4 h) [µM]"
CCn1c(-c2cccnc2[C@H](C)OC)c2c3cc(ccc31)-c1cc(O)cc(c1)C[C@H](NC(=O)[C@H](C(C)C)N(C)C(=O)[C@@H]1CCNC1)C(=O)N1CCC[C@H](N1)C(=O)OCC(C)(C)C2 [Compound A129],< 5,–
CCn1c(-c2cccnc2[C@H](C)OC)c2c3cc(ccc31)-c1cc(O)cc(c1)C[C@H](NC(=O)[C@H](C(C)C)N(C)C(=O)C1CC3CC1CN3)C(=O)N1CCC[C@H](N1)C(=O)OCC(C)(C)C2 (stereo partly drawn) [Compound A133],< 5,–
CCn1c(-c2cccnc2[C@H](C)OC)c2c3cc(ccc31)-c1cc(O)cc(c1)C[C@H](NC(=O)[C@H](C(C)C)N(C)C(=O)C1(C#N)CC1)C(=O)N1CCC[C@H](N1)C(=O)OCC(C)(C)C2 [Compound A159],< 5,–
CCn1c(-c2cccnc2[C@H](C)OC)c2c3cc(ccc31)-c1cc(O)cc(c1)C[C@H](NC(=O)[C@H](C(C)C)N(C)C(=O)[C@@H]1CC1(F)F)C(=O)N1CCC[C@H](N1)C(=O)OCC(C)(C)C2 [Compound A167],–,< 5
CCN1C[C@@H](C(=O)N(C)[C@H](C(=O)N[C@H]2Cc3cc(O)cc(c3)-c3ccc4c(c3)c(c(-c3cnccc3COC)n4CC)CC(C)(C)COC(=O)[C@@H]3CCCN(N3)C2=O)C(C)C)CC1=O [Compound A262],< 5,–
CCn1c(-c2cccnc2[C@H](C)OC)c2c3cc(ccc31)-c1csc(n1)C[C@H](NC(=O)[C@H](C(C)C)N(C)C(=O)N1CC[C@@H]1C(=O)NC)C(=O)N1CCC[C@H](N1)C(=O)OCC(C)(C)C2 [Compound A281],< 5,–
CCn1c(-c2cccnc2[C@H](C)OC)c2c3cc(ccc31)-c1csc(n1)C[C@H](NC(=O)[C@H](C(C)C)N(C)C(=O)N1CCOC3(CN(C)C3)C1)C(=O)N1CCC[C@H](N1)C(=O)OCC(C)(C)C2 [Compound A294],< 5,–
CCn1c(-c2cccnc2[C@H](C)OC)c2c3cc(ccc31)-c1csc(n1)C[C@H](NC(=O)[C@H](C(C)C)N(C)C(=O)N1CCO[C@@H](C)C1)C(=O)N1CCC[C@H](N1)C(=O)OCC(C)(C)C2 [Compound A309],< 5,–
CCN(CC)C1CN(C(=O)N(C)[C@H](C(=O)N[C@H]2Cc3nc(cs3)-c3ccc4c(c3)c(c(-c3cccnc3[C@H](C)OC)n4CC)CC(C)(C)COC(=O)[C@@H]3CCCN(N3)C2=O)C(C)C)C1 [Compound A319],< 5,–
CCn1c(-c2cccnc2[C@H](C)OC)c2c3cc(ccc31)-c1csc(n1)C[C@H](NC(=O)[C@H](C(C)C)N(C)C(=O)N(C)CC(C)C)C(=O)N1CCC[C@H](N1)C(=O)OCC(C)(C)C2 [Compound A332],< 5,–
CCn1c(-c2cccnc2[C@H](C)OC)c2c3cc(ccc31)-c1csc(n1)C[C@H](NC(=O)[C@H](C(C)C)N(C)C(=O)N1CC(NC)C1)C(=O)N1CCC[C@H](N1)C(=O)OCC(C)(C)C2 [Compound A337],< 5,–
CCN(C(=O)N(C)[C@H](C(=O)N[C@H]1Cc2nc(cs2)-c2ccc3c(c2)c(c(-c2cccnc2[C@H](C)OC)n3CC)CC(C)(C)COC(=O)[C@@H]2CCCN(N2)C1=O)C(C)C)C1CC1 [Compound A352],< 5,–
CCn1c(-c2cccnc2[C@H](C)OC)c2c3cc(ccc31)-c1csc(n1)C[C@H](NC(=O)[C@H]1CCO1)C(=O)N1CCC[C@H](N1)C(=O)OCC(C)(C)C2 [Compound A360],< 5,–
CCn1c(-c2cccnc2[C@H](C)OC)c2c3cc(ccc31)-c1csc(n1)C[C@H](NC(=O)[C@H](C(C)C)N(C)C(=O)N1CCN(C(=O)C3(N(C)C)CC3)CC1)C(=O)N1CCC[C@H](N1)C(=O)OCC(C)(C)C2 [Compound A443],< 5,–
CCn1c(-c2cccnc2[C@H](C)OC)c2c3cc(ccc31)-c1csc(n1)C[C@H](NC(=O)[C@H](C(C)C)N(C)C(=O)N1CC(N)(C#N)C1)C(=O)N1CCC[C@H](N1)C(=O)OCC(C)(C)C2 [Compound A456],< 5,–
CCn1c(-c2cc(N3CCN(C)CC3)cnc2[C@H](C)OC)c2c3cc(ccc31)-c1csc(n1)C[C@H](NC(=O)[C@H](C(C)C)N(C)C(=O)N1CC(N(C)C)C1)C(=O)N1CCC[C@H](N1)C(=O)OCC(C)(C)C2 [Compound A477],< 5,–

# Continued, in another order:
"EC50 (NCI-H358 cells, 4 hours) [µM]",SMILES,"EC50 (NCI-H358, 4 h) [µM]"
< 5,CCn1c(-c2cccnc2[C@H](C)OC)c2c3cc(ccc31)-c1csc(n1)C[C@H](NC(=O)[C@H](C1CCCC1)N(C)C(C)=O)C(=O)N1CCC[C@H](N1)C(=O)OCC(C)(C)C2 [Compound A141],–
< 5,CCn1c(-c2cccnc2[C@H](C)OC)c2c3cc(ccc31)-c1cc(O)cc(c1)C[C@H](NC(=O)[C@H](C(C)C)N(C)C(=O)C1CC13CCNC3)C(=O)N1CCC[C@H](N1)C(=O)OCC(C)(C)C2 (stereo partly drawn) [Compound A148],–
< 5,C=C[C@@H]1C[C@]1(N)C(=O)N(C)[C@H](C(=O)N[C@H]1Cc2cc(O)cc(c2)-c2ccc3c(c2)c(c(-c2cccnc2[C@H](C)OC)n3CC)CC(C)(C)COC(=O)[C@@H]2CCCN(N2)C1=O)C(C)C [Compound A149],–
< 5,CCn1c(-c2cccnc2[C@H](C)OC)c2c3cc(ccc31)-c1cc(O)cc(c1)C[C@H](NC(=O)[C@H](C(C)C)N(C)C(=O)[C@H]1CC1(F)F)C(=O)N1CCC[C@H](N1)C(=O)OCC(C)(C)C2 [Compound A166],–
< 5,CCn1c(-c2cccnc2[C@H](C)OC)c2c3cc(ccc31)-c1cc(O)cc(c1)C[C@H](NC(=O)[C@H](C(C)C)N(C)C(=O)C1Cc3cccnc3C1)C(=O)N1CCC[C@H](N1)C(=O)OCC(C)(C)C2 (stereo partly drawn) [Compound A250],–
< 5,CCn1c(-c2cnccc2COC)c2c3cc(ccc31)-c1cc(O)cc(c1)C[C@H](NC(=O)C1CCCC1C(F)F)C(=O)N1CCC[C@H](N1)C(=O)OCC(C)(C)C2 (stereo partly drawn) [Compound A261],–
< 5,CCn1c(-c2cccnc2[C@H](C)OC)c2c3cc(ccc31)-c1csc(n1)C[C@H](NC(=O)N1CCCC1)C(=O)N1CCC[C@H](N1)C(=O)OCC(C)(C)C2 [Compound A267],–
< 5,CCn1c(-c2cccnc2[C@H](C)OC)c2c3cc(ccc31)-c1csc(n1)C[C@H](NC(=O)[C@H](C(C)C)N(C)C(=O)N1CC(n3nc(C)cc3C)C1)C(=O)N1CCC[C@H](N1)C(=O)OCC(C)(C)C2 [Compound A297],–
< 5,CCn1c(-c2cccnc2[C@H](C)OC)c2c3cc(ccc31)-c1csc(n1)C[C@H](NC(=O)[C@H](C(C)C)N(C)C(=O)N1CC(OC(F)F)C1)C(=O)N1CCC[C@H](N1)C(=O)OCC(C)(C)C2 [Compound A302],–
< 5,CCn1c(-c2cccnc2[C@H](C)OC)c2c3cc(ccc31)-c1csc(n1)C[C@H](NC(=O)[C@H](C(C)C)N(C)C(=O)N1CCN(C(=O)CO)CC1)C(=O)N1CCC[C@H](N1)C(=O)OCC(C)(C)C2 [Compound A306],–
< 5,CCn1c(-c2cccnc2[C@H](C)OC)c2c3cc(ccc31)-c1csc(n1)C[C@H](NC(=O)[C@H](C(C)C)N(C)C(=O)N(C)C1CC1)C(=O)N1CCC[C@H](N1)C(=O)OCC(C)(C)C2 [Compound A353],–
< 5,CCn1c(-c2cccnc2[C@H](C)OC)c2c3cc(ccc31)-c1csc(n1)C[C@H](NC(=O)[C@H](C(C)C)N(C)C(=O)N1CC(CO)C1)C(=O)N1CCC[C@H](N1)C(=O)OCC(C)(C)C2 [Compound A356],–
< 5,CCn1c(-c2cccnc2[C@H](C)OC)c2c3cc(ccc31)-c1cc(O)cc(c1)C[C@H](NC(=O)[C@H](C(C)C)N(C)C(=O)[C@H]1CC[C@@H](CN(C)C)O1)C(=O)N1CCC[C@H](N1)C(=O)OCC(C)(C)C2 [Compound A397],–
< 5,CCn1c(-c2cccnc2[C@H](C)OC)c2c3cc(ccc31)-c1cc(O)cc(c1)C[C@H](NC(=O)[C@H](C(C)C)N(C)C(=O)[C@@H]1OC[C@@H]3CCC[C@@H]31)C(=O)N1CCC[C@H](N1)C(=O)OCC(C)(C)C2 [Compound A407],–
